Laboratory results from ChEMBL document CHEMBL4118100, “High Mobility Group Box-1 (HMGb1): Current Wisdom and Advancement as a Potential Drug Target” (J Med Chem, 2018).
Residues, ends and D or L forms follow the SMILES beside them.

Experiments:
[1] = biological target: Toll-like receptor 4/MD-2 (Homo sapiens, UniProt O00206+Q9Y6Y9); test: Binding affinity to recombinant human 10His-tagged TLR4 (24 to 631 residues)/recombinant human 10His-tagged MD2 (17 to 160 residues) after 5 mins by SPR assay; assay type: protein-complex assay
Chain of Toll-like receptor 4/MD-2 (O00206 whole entry, the tested form may be a part): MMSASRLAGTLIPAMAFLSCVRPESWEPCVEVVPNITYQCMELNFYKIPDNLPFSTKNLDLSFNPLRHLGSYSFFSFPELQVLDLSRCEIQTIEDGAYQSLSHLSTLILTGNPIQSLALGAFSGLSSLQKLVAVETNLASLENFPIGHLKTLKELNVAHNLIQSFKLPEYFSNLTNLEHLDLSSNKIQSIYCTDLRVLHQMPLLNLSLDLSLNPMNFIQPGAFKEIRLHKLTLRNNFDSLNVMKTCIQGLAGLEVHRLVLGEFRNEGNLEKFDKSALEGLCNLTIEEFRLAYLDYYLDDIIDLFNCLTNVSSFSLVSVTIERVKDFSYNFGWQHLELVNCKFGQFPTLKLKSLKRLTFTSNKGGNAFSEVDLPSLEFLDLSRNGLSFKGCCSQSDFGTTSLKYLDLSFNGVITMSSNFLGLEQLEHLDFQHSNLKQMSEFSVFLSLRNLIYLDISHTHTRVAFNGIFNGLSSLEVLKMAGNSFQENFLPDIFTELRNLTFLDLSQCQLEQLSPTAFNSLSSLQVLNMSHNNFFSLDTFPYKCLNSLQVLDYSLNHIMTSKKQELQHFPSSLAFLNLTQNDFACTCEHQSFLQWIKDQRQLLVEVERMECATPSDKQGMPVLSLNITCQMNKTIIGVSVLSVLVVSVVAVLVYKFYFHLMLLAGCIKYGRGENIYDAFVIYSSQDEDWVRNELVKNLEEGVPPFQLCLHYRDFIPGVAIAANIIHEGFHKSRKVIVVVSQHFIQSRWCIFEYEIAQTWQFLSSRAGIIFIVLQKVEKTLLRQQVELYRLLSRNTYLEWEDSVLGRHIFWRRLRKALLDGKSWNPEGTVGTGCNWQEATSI
Chain of Toll-like receptor 4/MD-2 (Q9Y6Y9 whole entry, the tested form may be a part): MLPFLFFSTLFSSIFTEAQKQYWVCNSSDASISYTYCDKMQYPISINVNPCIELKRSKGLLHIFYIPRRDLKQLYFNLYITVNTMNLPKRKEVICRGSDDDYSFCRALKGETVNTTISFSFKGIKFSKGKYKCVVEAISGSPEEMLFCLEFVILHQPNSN

[2] = biological target: T1, High mobility group protein B1 (Homo sapiens, UniProt P09429); test: Binding affinity to recombinant HMGB1 B box region (90 to 175 residues) (unknown origin) expressed Escherichia coli after 5 mins by fluorescence-based assay
T1 sequence (P09429 whole entry): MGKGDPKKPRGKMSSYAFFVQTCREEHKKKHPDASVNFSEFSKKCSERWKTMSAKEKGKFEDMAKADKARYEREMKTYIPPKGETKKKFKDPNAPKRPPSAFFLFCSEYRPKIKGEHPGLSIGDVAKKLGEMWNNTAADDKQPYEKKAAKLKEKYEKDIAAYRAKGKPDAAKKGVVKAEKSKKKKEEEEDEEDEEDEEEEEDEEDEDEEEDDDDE

[3] = biological target: T1, High mobility group protein B1; test: Binding affinity to recombinant HMGB1 A box region (1 to 89 residues) (unknown origin) expressed Escherichia coli after 5 mins by fluorescence-based assay
[4] = biological target: T1, High mobility group protein B1; test: Binding affinity to N-terminal 6His-tagged HMGB1 Bj region (88 to 181 residues) (unknown origin) expressed in Escherichia coli JM109 by SPR assay
[5] = biological target: T1, High mobility group protein B1; test: Binding affinity to N-terminal 6His-tagged HMGB1 AI region (1 to 87 residues) (unknown origin) expressed in Escherichia coli JM109 by SPR assay
[6] = biological target: T1, High mobility group protein B1; test: Binding affinity to recombinant HMGB1 box A (unknown origin)
[7] = biological target: T1, High mobility group protein B1; test: Binding affinity to recombinant HMGB1 box B (unknown origin)

With `CSCC[C@H](NC(=O)[C@H](C)N)C(=O)N[C@@H](C)C(=O)N[C@@H](CC(C)C)C(=O)N[C@@H](CC(=O)O)C(=O)N[C@@H](CS)C(=O)N[C@@H](Cc1ccccc1)C(=O)N[C@@H](CCCNC(=N)N)C(=O)N[C@@H](Cc1c[nH]c2ccccc12)C(=O)NCC(=O)N[C@@H](Cc1c[nH]c2ccccc12)C(=O)N[C@@H](CCCNC(=N)N)C(=O)N[C@@H](CCSC)C(=O)N[C@@H](Cc1c[nH]c2ccccc12)C(=O)N[C@@H](CS)C(=O)N[C@@H](CO)C(=O)N[C@@H](CO)C(=O)NCC(=O)O` (H-AMALDCFRWGWRMWCSSG-OH) the Kd [1] was 5.95 µM.

`CC1(C)[C@@H](O[C@H]2O[C@H](C(=O)O)[C@@H](O)[C@H](O)[C@H]2O[C@@H]2O[C@H](C(=O)O)[C@@H](O)[C@H](O)[C@H]2O)CC[C@]2(C)[C@H]3C(=O)C=C4[C@@H]5C[C@@](C)(C(=O)O)CC[C@]5(C)CC[C@@]4(C)[C@]3(C)CC[C@@H]12` [GLYCYRRHIZIN] showed a Kd [2] of 87 µM and a Kd [3] of 103 µM.

Work on `CN(Cc1cnc2nc(N)nc(N)c2n1)c1ccc(C(=O)N[C@@H](CCC(=O)O)C(=O)O)cc1` [METHOTREXATE] yielded a Kd [4] of 24 nM and a Kd [5] of 500 nM.

Compound `O=C(O)c1ccccc1O` [SALICYLIC ACID] has a Kd [6] of 1 to 10 µM and a Kd [7] of 1 to 10 µM.
